“Also recorded” adds a separate entry of the source. Like-named read-outs stand apart in the source and are kept apart here.
How the values were obtained:
[1] = tested on: calf thymus DNA and 5'-d(GCATGC)2; assay: DNA binding affinity trends over calf thymus DNA and 5'-d(GCATGC)2 (fluorescence quenching)
Procedure: (§1) Apparent absolute DNA binding constants for 1-22 and related agents including luzopeptin A were obtained by measurement of the fluorescence quenching upon titration addition of calf thymus DNA or the deoxyoligonucleotides 5'-d(GCXXGC)2 where XX=AT, TA, GC, and CG. For each agent, the characteristic fluorescence excitation and emission spectra were recorded in 10 mM Tris-HCl, 75 mM NaCl (pH 7.4) buffer, FIG. 6. For the DNA binding assays which quantitate the fluorescence quenching, excitation outside the absorbance range of DNA was employed and the most intense fluorescence emission at a longer wavelength monitored. For assay of the DNA-induced fluorescence quenching of the agents, a 2 mL buffer solution of Tris-HCl (pH 7.4) and 75 mM NaCl was employed. For titration, small aliquots of DNA were added to solutions of the agents in Tris-HCl buffer (pH 7.4).
(§2) Despite these precautions, the fluorescence for a number of the analog solutions decreased for several of analogs (11, 14, 17, 21 and 22) and the quality of the binding constants for these should be viewed with caution. […] The titrations were carried out with 15 min time intervals between DNA additions to allow binding equilibration. […] The titration fluorescence quenching was analyzed by Scatchard analysis (Scatchard, G. Ann. N. Y. Acad. Sci. 1949, 51, 660) with the following equation: rb /c=Kb n-Kb rb where rb is the number of agent molecules bound per DNA base-pair, c is the free drug concentration, Kb is the apparent association constant, and n is the number of agent binding sites per base-pair.
A pronounced downward curvature in an infinite lattice such as calf thymus DNA is recognized to arise in part from neighbor exclusion where the binding of an agent excludes the subsequent binding at nearby sites. This exclusion manifests itself in the plot by a reduction in the apparent binding constant as the DNA lattice approaches saturation and the probability of finding a free site is diminished. In the calf thymus DNA studies, the binding also entails multiple classes of independent binding sites or modes. For simplicity, a linear fit of the high affinity binding sites was used to determine the binding constant attributable to bis-intercalation. For the deoxyoligonucleotides, the curvature can be more simply attributed to multiple classes of independent binding sites or binding modes. There are a number of mathematical methods to deconvolute the curved plot into such individual binding events. In the deoxyoligonucleotide studies, a non-linear fit described by Feldman was also used to deconvolute the curves. The model assumes one ligand with two binding types or sites. Since the number of binding sites is limited, we have interpreted this to indicate a high affinity bis-intercalation and a lower affinity binding potentially involving mono-intercalation. The formula was fit using the JMP^22 statistical fitting program using an initial approximation of the two n values and fitting for K1 and K2.
After 5 min of stirring, an initial fluorescence reading was taken with minimum exposure to the excitation beam. […] The excitation and emission wavelengths used for each analog varied and can be found in FIG. 6. The results of the titration were analyzed by Scatchard analysis. The linear portion of the Scatchard plot was used to determine the high affinity binding constants. In the case of the deoxyoligonucleotide study, a non-linear fit of the curve as described in the text was also used to determine the high affinity binding constant (Feldman, H. A. Anal. Biochem. 1972, 48, 317).

[2] = Solubility of the agents in assay buffer / water; format: physicochemical; details: aqueous Tris-HCl/NaCl buffer pH 7.4
[3] = biological target: T1, HIV-1 reverse transcriptase (Human immunodeficiency virus type 1 group M subtype B, UniProt P04585); assay: Inhibition of HIV-1 reverse transcriptase; format: biochemical
Procedure: The assay was performed according to an available procedure (Goldman, M. E.; Salituro, G. S.; Bowen, J. A.; Williamson, J. M.; Zink, D. L.; Schleif, W. A.; Emini, E. A. Mol. Pharmacol. 1990, 38, 20) with slight modification. A 45 L solution of reaction buffer containing 55 mM Tris·HCl, pH 8.2, 80 mM potassium chloride, 12 mM MgCl2, 1 mM DTT, 50 M EGTA, 2.5 g/mL rA·dT, 0.5 Ci of [^3 H]TTP, 10 M TTP, 1 mg/mL BSA, and 0.01% Triton X-100 was added to a well in a filter cluster plate (Millipore MAHV N45). The reverse transcription reaction was initiated upon addition of the reverse transcriptase (1 unit; 1 unit=10 pmol of [^3 H]TMP incorporated/60 min at 37° C.). The plate was incubated at 37° C. for 90 min. The plate was then placed on ice and 200 µL of 13% trichloroacetic acid and 10 mM sodium pyrophosphate was added to each well. The plate was chilled for 2 h and the liquid vacuumed out through the filter using a Millipore manifold (Millipore MAVM 09601). The precipitate was washed with 1 M and 10 mM sodium pyrophosphate twice. The filter was punched out and placed in a scintillation vial. 4 mL of cocktail was added. Radioactivity was determined by liquid scintillation counting.
The effects of sandramycin and its analogs on HIV-1 reverse transcriptase were determined by incubating the agents and the rA·dT containing buffer at 25° C. for 30 min prior to addition of the reverse transcriptase. Reactions containing no agents were used as controls, and those lacking the transcriptase were used as blanks.

L1210 cell line = assay: In vitro cytotoxic activity, L1210; format: cell-based
5'-d(GCATGC)2 = assay: DNA binding by fluorescence quenching, 5'-d(GCATGC)2; details: for DNA binding affinity, in words: 5'-d(GCATGC)2, relative to 1 and 4
Procedure: as §1, §2
A pronounced downward curvature in an infinite lattice such as calf thymus DNA is recognized to arise in part from neighbor exclusion where the binding of an agent excludes the subsequent binding at nearby sites. This exclusion manifests itself in the plot by a reduction in the apparent binding constant as the DNA lattice approaches saturation and the probability of finding a free site is diminished. In the calf thymus DNA studies, the binding also entails multiple classes of independent binding sites or modes. […]

calf thymus DNA [4] = assay: DNA binding constants by fluorescence quenching, calf thymus DNA
Procedure: as §1, with “For titration, small aliquots of DNA were added to solutions of the agents in Tris-HCl buffer (pH 7.4).” left out
Despite these precautions, the fluorescence for a number of the analog solutions decreased for several of analogs (11, 14, 17, 21 and 22) and the quality of the binding constants for these should be viewed with caution. […] The titration fluorescence quenching was analyzed by Scatchard analysis (Scatchard, G. Ann. N. Y. Acad. Sci. 1949, 51, 660) with the following equation: rb /c=Kb n-Kb rb where rb is the number of agent molecules bound per DNA base-pair, c is the free drug concentration, Kb is the apparent association constant, and n is the number of agent binding sites per base-pair. […]

calf thymus DNA [5] = details: cited from earlier work
[6] = biological target: T1, HIV-1 reverse transcriptase; details: cited from earlier work

## CC(C)[C@H]1C(=O)OC[C@@H](NC(=O)c2cc3ccccc3cc2O)C(=O)N2CCCC[C@H]2C(=O)NCC(=O)N(C)CC(=O)N(C)[C@@H](C(C)C)C(=O)OC[C@@H](NC(=O)c2cc3ccccc3cc2O)C(=O)N2CCCC[C@H]2C(=O)NCC(=O)N(C)CC(=O)N1C [compound 5, (N-(3-Hydroxynaphthyl-2-carbonyl)-D-Ser-Pip-Gly-Sar-NMe-Val)2(Serine Hydroxyl) Dilactone]
[1]
  DNA binding affinity, in words: substantially less effective than all agents in the series
[2]
  solubility in the fluorescence quenching assay: not sufficiently soluble; also recorded: limited solubility
[3]
  HIV-1 reverse transcriptase inhibition, in words: much less effective
L1210 cell line
  cytotoxic potency, fold less potent than 1: 10000

## CC(C)[C@H]1C(=O)OC[C@@H](NC(=O)c2ccc3ccccc3c2)C(=O)N2CCCC[C@H]2C(=O)NCC(=O)N(C)CC(=O)N(C)[C@@H](C(C)C)C(=O)OC[C@@H](NC(=O)c2ccc3ccccc3c2)C(=O)N2CCCC[C@H]2C(=O)NCC(=O)N(C)CC(=O)N1C [compound 7]
[1]
  DNA binding affinity, in words: substantially less effective than all agents in the series
[2]
  solubility in the fluorescence quenching assay: not sufficiently soluble; also recorded: limited solubility
[3]
  HIV-1 reverse transcriptase inhibition, in words: much less effective
L1210 cell line
  cytotoxic potency, fold less potent than 4: 2000
  cytotoxic potency, fold less potent than 5: 2

## CC(C)C1C(=O)OCC(NC(=O)c2ncccc2O)C(=O)N2CCCCC2C(=O)NCC(=O)N(C)CC(=O)N(C)C(C(C)C)C(=O)OCC(NC(=O)c2ncccc2O)C(=O)N2CCCCC2C(=O)NCC(=O)N(C)CC(=O)N1C (stereo not shown) [compound 8]
5'-d(GCATGC)2; 5'-d(GCATGC)2, removal of fused benzene ring
  drop in DNA binding affinity: 2.3 to 2.6 kcal/mol
Calf thymus DNA [4]; removal of fused benzene ring
  drop in DNA binding affinity: 1.7 kcal/mol
[3]
  HIV-1 reverse transcriptase inhibition, in words: much less effective
L1210 cell line
  cytotoxic potency, fold less potent than 1: 4000

## CC(C)C1C(=O)OCC(NC(=O)c2cnc3ccccc3n2)C(=O)N2CCCCC2C(=O)NCC(=O)N(C)CC(=O)N(C)C(C(C)C)C(=O)OCC(NC(=O)c2cnc3ccccc3n2)C(=O)N2CCCCC2C(=O)NCC(=O)N(C)CC(=O)N1C [compound 18, (N-(Quinoxalyl-2-carbonyl)-D-Ser-Pip-Gly-Sar-NMe-Val)2 (Serine Hydroxyl) Dilactone]
[2]
  solubility in the fluorescence quenching assay: not sufficiently soluble; also recorded: limited solubility
[3]
  HIV-1 reverse transcriptase inhibition, in words: roughly maintain the HIV-1 reverse transcriptase inhibitory potency of 1; also recorded: Comparable but slightly less potent inhibition
  fold less potent than sandramycin: 3
L1210 cell line
  cytotoxic potency, fold less potent than 4: approximately 10
  cytotoxic potency, fold less potent than 13: approximately 10
  cytotoxic potency, fold more potent than 19: 300

## CC[n+]1c(-c2ccccc2)c2cc(N)ccc2c2ccc(N)cc21 [ethidium bromide]
Calf thymus DNA [5]
  binding constant employed to calculate the absolute binding constant: 450000 M⁻¹

## COc1ccc2nc(C(=O)N[C@@H]3COC(=O)[C@H](C(C)(C)O)N(C)C(=O)CN(C)C(=O)CNC(=O)[C@@H]4[C@@H](OC(C)=O)CC=NN4C(=O)[C@H](NC(=O)c4nc5ccc(OC)cc5cc4O)COC(=O)[C@H](C(C)(C)O)N(C)C(=O)CN(C)C(=O)CNC(=O)[C@@H]4[C@@H](OC(C)=O)CC=NN4C3=O)c(O)cc2c1 [luzopeptin A, reference compound]
[3]
  fold higher than values reported elsewhere: 20-30
[3]; range given for both agents
  IC50: 130 to 190 nM
[6]; read-out: IC50 reported elsewhere
  IC50: 7 nM

## COc1ccc2nc(C(=O)N[C@@H]3COC(=O)[C@H](C(C)(C)O)N(C)C(=O)CN(C)C(=O)CNC(=O)[C@@H]4[C@@H](OC(=O)[C@@H]5C[C@H]5C)CC=NN4C(=O)[C@H](NC(=O)c4cnc5cc(OC)ccc5n4)COC(=O)[C@H](C(C)(C)O)N(C)C(=O)CN(C)C(=O)CNC(=O)[C@@H]4C(OC(C)=O)CC=NN4C3=O)cnc2c1 (stereo partly shown) [quinoxapeptin B]
[6]
  fold less potent than quinoxapeptin A and luzopeptin A: approximately 2

## (N-(Iso-quinolinyl-3-carbonyl)-D-Ser-Pip-Gly-Sar-NMe-Val)2 (Serine Hydroxyl) Dilactone [compound 21]
[1]
  DNA binding affinity, in words: comparable to that of the monointercalator 24
5'-d(GCATGC)2
  DNA binding affinity, in words: substantially less effective
[3]
  HIV-1 reverse transcriptase inhibition, in words: much less effective

## (N-(Isoquinolinyl-1-carbonyl)-D-Ser-Pip-Gly-Sar-NMe-Val)2 (Serine Hydroxyl) Dilactone [compound 22]
[1]
  DNA binding affinity, in words: comparable to that of the monointercalator 24
5'-d(GCATGC)2
  DNA binding affinity, in words: substantially less effective
Calf thymus DNA [4]
  DNA binding affinity, in words: comparable to 4
[3]
  HIV-1 reverse transcriptase inhibition, in words: much less effective
